From PMC6857134, “Antimicrobial functional divergence of the cecropin antibacterial peptide gene family in Musca domestica” (Parasites & Vectors, 2019)
Converted amounts (≈) assume the structure as drawn. Residues, ends and D or L forms follow the SMILES beside them. No end group written: not given here.

Key:
A. baumannii 4367992 = assay: MIC by broth microdilution; type: cell-based, Acinetobacter baumannii; details: 37 °C, 24 h; for MIC / inhibitory concentration against A. baumannii: strain not given, broth microdilution
Procedure: (§1) Evaluation of the MIC of synthetic peptides was performed using broth microdilution techniques according to the guidelines of the Clinical and Laboratory Standards Association (CLSI). The antimicrobial spectrum and biological activity of the above chemically synthesized peptides were tested against six Gram-positive bacteria, five Gram-negative bacteria and one fungus. Overnight cultures of the 11 bacteria were grown in MHB at 37 °C and C. albicans was grown in Sabouraud dextrose broth (SDB) medium (Sangon, Shanghai, China) and cultured at 37 °C to mid-log phase and diluted to 1.5 × 10^6 CFU/ml. In a polypropylene 96-well round-bottom plate, 50 μl of bacteria was mixed with 50 μl of designed synthetic peptide dissolved in sterile distilled water (final concentration of 0–64 μM). Sterile distilled water was used as a negative control and polymyxin B dissolved in sterile distilled water as a positive control.

A. baumannii (4367992) = assay: Time-killing assay (growth curve, absorbance at 600 nm); type: cell-based, Acinetobacter baumannii
Procedure: The effect of peptides on the growth of an A. baumannii (4367992) isolate was examined as follows: the strain was cultured in nutrient agar for 18–20 h and adjusted to 0.5 McFarland units with MHB medium, then diluted 1:20 in MHB medium. Each peptide was added to one culture tube at a final concentration of 1× MIC or 2× MIC. […] The cultures were incubated for 24 h at 37 °C with shaking at 200× rpm, and the absorbance at 600 nm of 1 ml aliquots was recorded at 0.5–2 h intervals.

[1] = system: tested microorganisms (Gram-positive bacteria, Gram-negative bacteria, one fungus); assay: MIC by broth microdilution, summary over the panel of tested microorganisms; type: cell-based; details: at concentrations up to 32 μM
Procedure: as §1

[2] = system: extensive-drug-resistant A. baumannii (4367992); assay: Leakage of 260 nm absorbing material; type: cell-based, Acinetobacter baumannii; details: 0.5× MIC and 2× MIC, 0–8 h, 37 °C, 1 × 10^6 CFU/ml; three independent experiments
Procedure: The reference method was slightly modified, taking the logarithmic growth phase of extensive-drug-resistant A. baumannii (4367992) as detected bacteria. Five millilitres of bacterial suspension (1 × 10^6 CFU/ml) was treated with different concentrations of antimicrobial peptides (0.5× MIC, 2× MIC). After being placed at 37 °C and 150× rpm, aliquots (0.5 ml) of the treated bacterial suspension were removed at different intervals (0, 0.5, 1, 2, 4, 6 and 8 h). The aliquots were centrifuged (1000× rpm, 5 min) and the absorbance of supernatant was measured at 260 nm, using PBS as the control.

Which MIC (A. baumannii 4367992; A. baumannii 4367992 (extensive-drug-resistant isolate), broth microdilution (CLSI), MHB, visual growth) does the source give for CC[C@H](C)CCCCC(=O)N[C@@H](CCN)C(=O)N[C@H](C(=O)N[C@@H](CCN)C(=O)N[C@H]1CCNC(=O)[C@H]([C@@H](C)O)NC(=O)[C@H](CCN)NC(=O)[C@H](CCN)NC(=O)[C@H](CC(C)C)NC(=O)[C@@H](Cc2ccccc2)NC(=O)[C@H](CCN)NC1=O)[C@@H](C)O [polymyxin B, reference compound] (HELM PEPTIDE1{[CC[C@H](C)CCCCC(=O)[*:2]].[Dab].T.[Dab].[Dab].[Dab].[dF].L.[Dab].[Dab].T}$PEPTIDE1,PEPTIDE1,5:R3-11:R2$$$V2.0; N-terminus assumed; bridges inferred) here?
The MIC was 1.05 µM (≈ 1.26 µg/mL).

What about the “duration of antibacterial effect on A. baumannii” value (A. baumannii (4367992); Cec4 at 1× MIC and 2× MIC, polymyxin B at 1× MIC (1.05 μM), MHB, 37 °C, 200 rpm, absorbance 600 nm over 24 h, three independent experiments) of the same molecule?
The value was no more than 12 h.

“GWLKDFGRRIERVGQHTRDATIQAIGVAQQATDVAATLKGK [Cec9]” was tested. Which “inhibitory effect on the other experimental strains (other than E. coli)” value [1] did it give?
The value was “no inhibitory effect”.

Which “MIC / inhibitory concentration against A. baumannii” value (A. baumannii 4367992) does the source give for “GWLKKIGKKIERVGQNTRDATIQAIGVAQQAANVAATLKGK [Cec4]” here?
Its value is 0.5 µM.

What about the “time-kill kinetics, killing pattern” value (A. baumannii (4367992); A. baumannii in the logarithmic growth phase) of the same molecule?
The value was “rapid and concentration-dependent killing pattern”.

And the “leakage of 260 nm absorbing material (maximum absorbance at 260 nm)” value [2]?
Its value is “dose-dependent increase”.

How did the “MIC / inhibitory concentration against A. baumannii” value (A. baumannii 4367992) turn out when “GWLKKVGKKIERVGQHTRDATIQGLGVAQQAANVVATVKGK [Cec3]” was run?
Its value is 32 µM.
